# Results published in patent US10131652B2, “Pyrimidinyloxy benzene derivatives as herbicides” (E. I. DU PONT DE NEMOURS AND COMPANY, priority 2014, dated 2018).
# What was measured:
# Type in all cases: in vivo
# [1] = tested on: pigweed (Amaranthus retroflexus); assay: Test B pre-/postemergence plant response
# How it was run: (§1)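 Steps: plant seeds in loam soil–sand mix; spray soil preemergence, and in parallel spray 2–10 cm one- to two-leaf plants postemergence; hold ~10 days in greenhouse; visually rate injury against untreated controls (0 = no effect, 100 = complete control).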
# [2] = tested on: wheat (Triticum aestivum); assay: Test B pre-/postemergence plant response
# How it was run: as §1
# [3] = tested on: giant foxtail (Setaria faberii); assay: Test B pre-/postemergence plant response
# How it was run: as §1
# corn (Zea mays) = assay: Test B pre-/postemergence plant response
# How it was run: as §1
# [4] = tested on: barnyardgrass (Echinochloa crus-galli); assay: Test B pre-/postemergence plant response
# How it was run: as §1
# [5] = tested on: morningglory (Ipomoea coccinea); assay: Test D pre-/postemergence plant response; conditions: Postemergence
# How it was run: (§2)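 Test chemicals were formulated in a non-phytotoxic solvent mixture containing surfactant and applied either preemergence to seeds in loam–sand soil or postemergence to plants 2 to 18 cm tall (1- to 4-leaf stage). Response was rated visually against controls after 13 to 15 days, from 0 (none) to 100 (complete control).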
# [6] = tested on: pigweed (Amaranthus retroflexus); assay: Test D pre-/postemergence plant response; conditions: Postemergence
# How it was run: as §2
# [7] = tested on: ragweed (common ragweed, Ambrosia elatior); assay: Test D pre-/postemergence plant response; conditions: Postemergence
# How it was run: as §2
# soybean (Glycine max) = assay: Test D pre-/postemergence plant response; conditions: Postemergence
# How it was run: as §2
# [8] = tested on: yellow nutsedge (Cyperus esculentus); assay: Test D pre-/postemergence plant response; conditions: Postemergence
# How it was run: as §2
# [9] = tested on: giant foxtail (Setaria faberii); assay: Test D pre-/postemergence plant response; conditions: Postemergence; for Plant response rating, Foxtail, Giant: scale 0 to 100, 0 no effect, 100 complete control
# How it was run: as §2
# [10] = tested on: waterhemp (common waterhemp, Amaranthus rudis); assay: Test D pre-/postemergence plant response; conditions: Postemergence
# How it was run: as §2
# [11] = tested on: johnsongrass (Sorghum halepense); assay: Test D pre-/postemergence plant response; conditions: Postemergence; for Plant response rating, Johnsongrass: scale 0 to 100, 0 no effect, 100 complete control
# How it was run: as §2
# [12] = tested on: blackgrass (Alopecurus myosuroides); assay: Test D pre-/postemergence plant response; conditions: Postemergence; for Plant response rating, Blackgrass: scale 0 to 100, 0 no effect, 100 complete control
# How it was run: as §2
# [13] = tested on: barnyardgrass (Echinochloa crus-galli); assay: Test D pre-/postemergence plant response; conditions: Postemergence; for Plant response rating, Barnyardgrass: scale 0 to 100, 0 no effect, 100 complete control
# How it was run: as §2
# [14] = tested on: large (Lg) crabgrass (Digitaria sanguinalis); assay: Test D pre-/postemergence plant response; conditions: Postemergence; for Plant response rating, Crabgrass, Large: scale 0 to 100, 0 no effect, 100 complete control
# How it was run: as §2
# [15] = 31 g ai/ha, Preemergence, 0 to 100 scale where 0 is no effect and 100 is complete control
# [16] = 125 g ai/ha, postemergence, 0 to 100 scale, 0 no effect, 100 complete control
# [17] = Postemergence, 31 g ai/ha, 0 to 100 scale (0 no effect, 100 complete control)
# [18] = Preemergence, 125 g ai/ha, 0 to 100 scale (0 no effect, 100 complete control)
# [19] = 31 g ai/ha, scale 0 to 100 (0 no effect, 100 complete control)
# [20] = 62 g ai/ha, scale 0 to 100, 0 no effect, 100 complete control
# [21] = 125 g ai/ha, scale 0 to 100, 0 no effect, 100 complete control
compound,measurement,setting,value
CC(F)(F)c1cc(-c2ccccc2Oc2ncc(Cl)cn2)no1 [Compound 220],"Plant response rating, Pigweed",[1]; [15],100
same,"Plant response rating, Pigweed",[1]; [16],100
same,"Plant response rating, Pigweed",[1]; [17],100
same,Pigweed plant response rating,[1]; [18],100
same,"Plant response rating, Wheat",[2]; [16],50
same,"Plant response rating, Wheat",[2]; [17],10
same,"Plant response rating, Foxtail, Giant",[3]; [15],70
same,"Plant response rating, Foxtail, Giant",[3]; [16],80
same,"Plant response rating, Foxtail, Giant",[3]; [17],30
same,"Foxtail, Giant plant response rating",[3]; [18],100
same,"Plant response rating, Corn",corn (Zea mays); [16],20
same,"Plant response rating, Corn",corn (Zea mays); [17],10
same,"Plant response rating, Barnyardgrass",[4]; [15],10
same,"Plant response rating, Barnyardgrass",[4]; [16],40
same,"Plant response rating, Barnyardgrass",[4]; [17],10
same,Barnyardgrass plant response rating,[4]; [18],100
same,"Plant response rating (scale 0 to 100), Morningglory",[5]; 2 g ai/ha,35
same,"Plant response rating (scale 0 to 100), Morningglory",[5]; 4 g ai/ha,15
same,"Plant response rating (scale 0 to 100), Morningglory",[5]; 8 g ai/ha,25
same,"Plant response rating (scale 0 to 100), Morningglory",[5]; 16 g ai/ha,75
same,"Plant response rating (scale 0 to 100), Pigweed",[6]; 2 g ai/ha,70
same,"Plant response rating (scale 0 to 100), Pigweed",[6]; 4 g ai/ha,75
same,"Plant response rating (scale 0 to 100), Pigweed",[6]; 8 g ai/ha,80
same,"Plant response rating (scale 0 to 100), Pigweed",[6]; 16 g ai/ha,85
same,"Plant response rating (scale 0 to 100), Ragweed",[7]; 2 g ai/ha,5
same,"Plant response rating (scale 0 to 100), Ragweed",[7]; 4 g ai/ha,15
same,"Plant response rating (scale 0 to 100), Ragweed",[7]; 8 g ai/ha,15
same,"Plant response rating (scale 0 to 100), Ragweed",[7]; 16 g ai/ha,25
same,"Plant response rating (scale 0 to 100), Soybean",soybean (Glycine max); 2 g ai/ha,15
same,"Plant response rating (scale 0 to 100), Soybean",soybean (Glycine max); 4 g ai/ha,10
same,"Plant response rating (scale 0 to 100), Soybean",soybean (Glycine max); 8 g ai/ha,10
same,"Plant response rating (scale 0 to 100), Soybean",soybean (Glycine max); 16 g ai/ha,10
same,"Plant response rating (scale 0 to 100), Nutsedge, Yellow",[8]; 2 g ai/ha,0
same,"Plant response rating (scale 0 to 100), Nutsedge, Yellow",[8]; 4 g ai/ha,0
same,"Plant response rating (scale 0 to 100), Nutsedge, Yellow",[8]; 8 g ai/ha,0
same,"Plant response rating (scale 0 to 100), Nutsedge, Yellow",[8]; 16 g ai/ha,5
same,"Plant response rating (scale 0 to 100), Foxtail, Giant",[9]; 2 g ai/ha,0
same,"Plant response rating (scale 0 to 100), Foxtail, Giant",[9]; 4 g ai/ha,5
same,"Plant response rating (scale 0 to 100), Foxtail, Giant",[9]; 8 g ai/ha,5
same,"Plant response rating (scale 0 to 100), Foxtail, Giant",[9]; 16 g ai/ha,5
same,"Plant response rating (scale 0 to 100), Waterhemp",[10]; 2 g ai/ha,15
same,"Plant response rating (scale 0 to 100), Waterhemp",[10]; 4 g ai/ha,60
same,"Plant response rating (scale 0 to 100), Waterhemp",[10]; 8 g ai/ha,70
same,"Plant response rating (scale 0 to 100), Waterhemp",[10]; 16 g ai/ha,80
same,"Plant response rating (scale 0 to 100), Johnsongrass",[11]; 2 g ai/ha,0
same,"Plant response rating (scale 0 to 100), Johnsongrass",[11]; 4 g ai/ha,0
same,"Plant response rating (scale 0 to 100), Johnsongrass",[11]; 8 g ai/ha,0
same,"Plant response rating (scale 0 to 100), Johnsongrass",[11]; 16 g ai/ha,5
same,"Plant response rating (scale 0 to 100), Blackgrass",[12]; 2 g ai/ha,0
same,"Plant response rating (scale 0 to 100), Blackgrass",[12]; 4 g ai/ha,0
same,"Plant response rating (scale 0 to 100), Blackgrass",[12]; 8 g ai/ha,0
same,"Plant response rating (scale 0 to 100), Blackgrass",[12]; 16 g ai/ha,5
same,"Plant response rating (scale 0 to 100), Barnyardgrass",[13]; 2 g ai/ha,5
same,"Plant response rating (scale 0 to 100), Barnyardgrass",[13]; 4 g ai/ha,5
same,"Plant response rating (scale 0 to 100), Barnyardgrass",[13]; 8 g ai/ha,10
same,"Plant response rating (scale 0 to 100), Barnyardgrass",[13]; 16 g ai/ha,10
same,"Plant response rating (scale 0 to 100), Crabgrass, Large",[14]; 2 g ai/ha,5
same,"Plant response rating (scale 0 to 100), Crabgrass, Large",[14]; 4 g ai/ha,5
same,"Plant response rating (scale 0 to 100), Crabgrass, Large",[14]; 8 g ai/ha,5
same,"Plant response rating (scale 0 to 100), Crabgrass, Large",[14]; 16 g ai/ha,15
Fc1ccc(Oc2ncc(Cl)cn2)c(-c2cc(C(F)(Cl)Cl)on2)c1 [Compound 221],"Plant response rating, Pigweed",[1]; [15],100
same,"Plant response rating, Pigweed",[1]; [16],90
same,"Plant response rating, Pigweed",[1]; [17],90
same,Pigweed plant response rating,[1]; [18],100
same,"Plant response rating, Wheat",[2]; [16],30
same,"Plant response rating, Wheat",[2]; [17],20
same,"Plant response rating, Foxtail, Giant",[3]; [15],50
same,"Plant response rating, Foxtail, Giant",[3]; [16],90
same,"Plant response rating, Foxtail, Giant",[3]; [17],10
same,"Foxtail, Giant plant response rating",[3]; [18],90
same,"Plant response rating, Corn",corn (Zea mays); [16],50
same,"Plant response rating, Corn",corn (Zea mays); [17],20
same,"Plant response rating, Barnyardgrass",[4]; [15],20
same,"Plant response rating, Barnyardgrass",[4]; [16],90
same,"Plant response rating, Barnyardgrass",[4]; [17],10
same,Barnyardgrass plant response rating,[4]; [18],90
same,"Plant response rating (scale 0 to 100), Morningglory",[5]; 16 g ai/ha,65
same,Morningglory plant response rating,[5]; [19],65
same,Morningglory plant response rating,[5]; [20],80
same,"Plant response rating, Morningglory",[5]; [21],85
same,"Plant response rating (scale 0 to 100), Pigweed",[6]; 16 g ai/ha,95
same,Pigweed plant response rating,[6]; [19],95
same,Pigweed plant response rating,[6]; [20],98
same,"Plant response rating, Pigweed",[6]; [21],100
same,"Plant response rating (scale 0 to 100), Ragweed",[7]; 16 g ai/ha,35
same,Ragweed plant response rating,[7]; [19],50
same,Ragweed plant response rating,[7]; [20],45
same,"Plant response rating, Ragweed",[7]; [21],75
same,"Plant response rating (scale 0 to 100), Soybean",soybean (Glycine max); 16 g ai/ha,35
same,Soybean plant response rating,soybean (Glycine max); [19],25
same,Soybean plant response rating,soybean (Glycine max); [20],85
same,"Plant response rating, Soybean",soybean (Glycine max); [21],90
same,"Plant response rating (scale 0 to 100), Nutsedge, Yellow",[8]; 16 g ai/ha,5
same,"Nutsedge, Yellow plant response rating",[8]; [19],5
same,"Nutsedge, Yellow plant response rating",[8]; [20],5
same,"Plant response rating, Nutsedge, Yellow",[8]; [21],10
same,"Plant response rating (scale 0 to 100), Foxtail, Giant",[9]; 16 g ai/ha,35
same,"Foxtail, Giant plant response rating",[9]; [19],5
same,"Plant response rating, Foxtail, Giant",[9]; 62 g ai/ha,5
same,"Plant response rating, Foxtail, Giant",[9]; 125 g ai/ha,35
same,"Plant response rating (scale 0 to 100), Waterhemp",[10]; 16 g ai/ha,70
same,Waterhemp plant response rating,[10]; [19],85
same,Waterhemp plant response rating,[10]; [20],100
same,"Plant response rating, Waterhemp",[10]; [21],100
same,"Plant response rating (scale 0 to 100), Johnsongrass",[11]; 16 g ai/ha,0
same,Johnsongrass plant response rating,[11]; [19],5
same,"Plant response rating, Johnsongrass",[11]; 62 g ai/ha,15
same,"Plant response rating, Johnsongrass",[11]; 125 g ai/ha,15
same,"Plant response rating (scale 0 to 100), Blackgrass",[12]; 16 g ai/ha,5
same,Blackgrass plant response rating,[12]; [19],10
same,"Plant response rating, Blackgrass",[12]; 62 g ai/ha,5
same,"Plant response rating, Blackgrass",[12]; 125 g ai/ha,40
same,"Plant response rating (scale 0 to 100), Barnyardgrass",[13]; 16 g ai/ha,0
same,Barnyardgrass plant response rating,[13]; [19],5
same,"Plant response rating, Barnyardgrass",[13]; 62 g ai/ha,5
same,"Plant response rating, Barnyardgrass",[13]; 125 g ai/ha,10
same,"Plant response rating (scale 0 to 100), Crabgrass, Large",[14]; 16 g ai/ha,10
same,"Crabgrass, Large plant response rating",[14]; [19],10
same,"Plant response rating, Crabgrass, Large",[14]; 62 g ai/ha,25
same,"Plant response rating, Crabgrass, Large",[14]; 125 g ai/ha,30
